How the values were obtained:
Format in all cases: in vivo
souris [1] = experiment: Interaction with apomorphine, mouse; conditions: 16 mg/kg et 64 mg/kg i.p., une demi-heure avant apomorphine s.c. 1 ou 16 mg/kg
Procedure: Des lots de 6 souris reçoivent le CRL 40914 une demi-heure avant l'injection sous-cutanée d'apomorphine, à la dose de 1 mg/kg ou 16 mg/kg.
(§1) On a résumé ci-après les résultats des essais qui ont été entrepris chez l'animal avec le CRL 40915, les modalités opératoires étant celles données ci-dessus pour le CR L 40914.

souris mâle = experiment: Acute toxicity by the i.p. route (DL-0, DL-50); conditions: voie i.p.
Procedure: (§2) On a résumé ci-après les résultats des essais qui ont été entrepris chez l'animal avec le CRL 40914, ce produit étant administré, sauf indications contraires, en solution dans l'eau (à pH 5) par voie intrapéritonéale sous un volume de 20 ml/kg chez la souris mâle et de 5 ml/kg chez le rat mâle.
Chez la souris mâle, la DL-0 (dose maximale non mortelle) par voie i.p. est supérieure à 128 mg/kg.
as §1
Chez la souris mâle, la DL-0 (dose maximale non mortelle) par voie i.p. est supérieure à 256 mg/kg, et la DL-50 par voie i.p. est de l'ordre de 500 mg/kg environ.

rat = experiment: Global behaviour and reactivity, rat
Procedure: as §2
Des lots de 3 animaux sont observés avant, puis 15 min, 30 min, 1 h, 2 h, 3 h et 24 h après l'administration de CRL 40914. On observe ce qui suit:
as §1

rats = experiment: Interaction with amphetamine; conditions: rat, 8 mg/kg et 32 mg/kg i.p., amphétamine 2 mg/kg i.p.
Procedure: L'amphétamine (2 mg/kg) est injectée par voie intrapéritonéale à des lots de 12 rats, une demi-heure après l'administration de CRL 40914.
as §1

souris [2] = experiment: Interaction with oxotremorine; conditions: oxotrémorine 0,5 mg/kg i.p.
Procedure: Le CRL 40914 est administré à des lots de 6 souris une demi-heure avant l'injection intrapéritonéale de 0,5 mg/kg d'oxotrémorine.
as §1

souris [3] = experiment: Four plates test, traction and electroshock
Source text: Le test est pratiqué sur des lots de 10 souris, une demi-heure après l'administration de CRL 40914.
as §1

souris [4] = experiment: Motility reduced by hypoxic aggression; conditions: i.p., anoxie hypobare aiguë
Procedure: Une demi-heure après avoir reçu le CRL 40914, les souris (10 par dose, 20 témoins) sont soumises à une anoxie hypobare aiguë [dépression de 600 mm Hg (soit environ 8 x10^4 pascals) en 90 s puis détente de 45 s] puis elles sont placées en actimètre où leur motilité est enregistrée pendant 10min.
as §1

For `CCN1CCOC(c2ccccc2)C1` (stereo not drawn) [CRL 40914, Chlorhydratede 2-phényl-4-éthyl-morpholine], the “action hypothermisante de l'apomorphine” value (souris [1]) was “s'oppose à l'action hypothermisante de l'apomorphine”, the “indices de verticalisation et de stéréotypies (apomorphine)” value (souris [1]) was “semble augmenter les indices de verticalisation et de stéréotypies” and the “DL-0 (dose maximale non mortelle)” value (souris mâle) was over 128 mg/kg. The mydriase (rat; rat, 0,5 mg/kg i.p.) was “mydriase pendant 1 à 2 h”, the mydriase (rat; rat, 2 mg/kg i.p.) was “mydriase pendant 1 à 2 h” and the sédation (rat; rat, 2 mg/kg i.p.) was “sédation pendant 1 h”. For the same compound, the mydriase (rat; rat, 8 mg/kg i.p.) was “mydriase pendant 2 h”, the piloérection (rat; rat, 8 mg/kg i.p.) was “piloérection pendant 1 à 2 h” and the sédation (rat; rat, 8 mg/kg i.p.) was “sédation pendant 2 h avec diminution de la réactivité au toucher mais augmentation de la réaction de peur”. The mydriase (rat; rat, 32 mg/kg i.p.) was “mydriase pendant plus de 3 h”, the “piloérection, salivation et lacrymation” value (rat; rat, 32 mg/kg i.p.) was “piloérection (pendant 3 h), salivation (pendant 1 h) et lacrymation (pendant 1 h)” and the réaction de peur (rat; rat, 32 mg/kg i.p.) was “augmentation de la réaction de peur pendant 3 h”. The sédation (rat; rat, 32 mg/kg i.p.) was “sédation pendant 3 h avec diminution de la réactivité au toucher et du tonus musculaire”, the “stéréotypies amphétaminiques” value (rats) was “diminue nettement l'intensité des téréotypies amphétaminiques” and the “effet hypothermisant de l'oxotrémorine” value (souris [2]; 16 mg/kg et 64 mg/kg i.p.) was “combat l'effet hypothermisant”. The “tremblements dus à l'oxotrémorine” value (souris [2]; 64 mg/kg i.p.) was “diminue l'intensité des tremblements”, the “signes de stimulation cholinergique périphérique provoqués par l'oxotrémorine” value (souris [2]) was “laisse inchangés les signes de stimulation cholinergique périphériques” and the “effets létaux de l'électrochoc” value (souris [3]; 64 mg/kg i.p.) was “aggrave les effets létaux de l'électrochoc”. For the same compound, the “déficit moteur (traction)” value (souris [3]; i.p.) was “ne provoque pas de déficit moteur majeur”, the “nombre de passages punis (test des quatre plaques)” value (souris [3]; i.p., faible dose / forte dose) was “à faible dose une diminution, et à forte dose une augmentation du nombre de passages punis” and the “activité motrice après agression hypoxique” value (souris [4]) was “modifications de l'activité motrice qui reflètent son action sur la motilité spontanée”.

Source: patent EP0080940B1, “Derivatives of 2-phenyl-morpholine and medical compositions” (LABORATOIRE L. LAFON Société anonyme dite:, priority 1981, dated 1983)
